Experimental data: patent US8420591B2, “MUC1 and galectin-3” (Dana-Farber Cancer Institute, Inc., priority 2006, dated 2013)
Where no end group is shown, it is not given here.

How the values were obtained:
[1] = system: MUC1 and EGFR interaction; assay: EGF-stimulated association of MUC1 and EGFR in ZR-75-1 cells (anti-MUC1-N precipitates immunoblotted); format: cell-based, human; details: EGF for 5 min, co-immunoprecipitation
Experimental: (§1) Cell culture. Human breast cancer (ZR-75-1, BT549) and lung cancer (CRL-5985, CRL-5909) cells were grown in RPMI1640 medium supplemented with 10% fetal bovine serum (FBS), 100 units/ml penicillin and 100 μg/ml streptomycin. The human breast cancer ([…], MCF-7), prostate cancer (LnCAP, DU145, PC3), lung cancer (A549), kidney epithelial (293) and Chinese hamster ovary (CHO-K1) cells were cultured in Dulbecco's Modified Eagle's medium (DMEM) supplemented with 10% FBS, antibiotics and 1 mM L-glutamine. The glycosylation deficient CHO-Lec2 and CHO-Lec8 cells (ATCC, Manassas, Va.) were grown in alpha minimum essential medium containing 10% FBS and antibiotics. In certain studies, cells were cultured in medium with 0.1% FBS for 24 hours and then stimulated with 100 ng/ml epidermal growth factor (EGF) (Calbiochem-Novabiochem, La Jolla, Calif.) for 5 minutes at 37° C.
Immunoblotting and precipitates. Lysates were prepared from subconfluent cells as described (Li et al., 2001). Immunoblot analysis was performed with antibodies specific for MUC1-C (Ab5; Neomarkers, Fremont, Calif.), galectin-3 (Abcam, Cambridge, Mass.), β-actin (Sigma-Aldrich, St. Louis, Mo.), epidermal growth factor receptor (EGFR) (Santa Cruz Biotechnology, Santa Cruz, Calif.), and MUC1-N (DF3) (Ren et al., 2004). Immune complexes were prepared as described with antibodies specific for MUC1-C and MUC1-N (Li et al., 1998). […]

EGFR and MUC1 clustering = assay: Confocal microscopy of EGF-induced colocalization of EGFR and MUC1 in ZR-75-1 cells; format: cell-based, human; details: EGF for 5 min
Experimental: as §1
Immunofluorescence microscopy. Cells were fixed in 3.7% formaldehyde, permeabilized in 0.2% Triton™ X-100 and post-fixed in 3.7% formaldehyde. The cells were blocked with 10% normal goat serum and stained with antibodies specific for MUC1-N (MAb DF3) and antibodies specific for EGFR (Santa Cruz Biotechnology, Santa Cruz, Calif.), followed by fluorescein-conjugated antibodies specific for rabbit IgG or Texas Red-conjugated antibodies specific for mouse IgG (Jackson ImmunoResearch Laboratories, West Grove, Pa.). […]

MUC1-C/ED = molecular target: T1, MUC1-C/ED (Homo sapiens, UniProt P15941); assay: In vitro binding assay: hFc-MUC1-C/ED incubated with GST-galectin-3 deletion mutants, glutathione pull-down; details: immunoblot anti-MUC1-C/ED
T1 construct: made in house; host or cells: CHO-K1
T1 sequence (P15941 1098-1155): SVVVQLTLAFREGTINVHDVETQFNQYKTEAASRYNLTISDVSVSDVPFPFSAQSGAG
Experimental: (§2) In vitro binding assays. hFc and hFc-MUC1-C/ED were incubated with purified galectin-3 in lysis buffer for 1 hour at 4° C. The reaction products were precipitated with protein G-Sepharose™ and immunoblotted with anti-galectin-3. In other studies, hFc-MUC1-C/ED was incubated with GST-galectin-3 deletion mutants. The reaction products were precipitated with glutathione-sepharose 4B and immunoblotted with anti-MUC1-C/ED (Ren et al., 2004).

miR-322 [2] = assay: Galectin-3 mRNA stability assay after actinomycin D in transfected BT549/vector cells; format: cell-based, human; details: BT549/vector cells transfected with oligo, then actinomycin D; quantitative RT-PCR
Experimental: mRNA stability assays. […] Total RNA was isolated and analyzed for galectin-3 and GAPDH mRNA levels by quantitative RT-PCT. The half life of galectin-3 mRNA was calculated using linear regression analysis. Antisense inhibition of miR-322. An antisense 2'-O-methyl oligoribonucleotide […] NO:20) against miR-322 and a scrambled 2'-O-methyl oligoribonucleotide […] NO:21) (Integrated DNA Technologies) were transfected into BT549 cells (50 pmol/10,000 cells) in the presence of LipofectamineTM 2000. At 72 hours after transfection, the cells were analyzed for galectin-3 expression.

miR-322 [3] = assay: Antisense inhibition of miR-322: galectin-3 expression in BT549/vector cells; format: cell-based, human; details: 72 h after transfection
Experimental: Immunoblotting and precipitates. Lysates were prepared from subconfluent cells as described (Li et al., 2001). Immunoblot analysis was performed with antibodies specific for MUC1-C (Ab5; Neomarkers, Fremont, Calif.), galectin-3 (Abcam, Cambridge, Mass.), β-actin (Sigma-Aldrich, St. Louis, Mo.), epidermal growth factor receptor (EGFR) (Santa Cruz Biotechnology, Santa Cruz, Calif.), and MUC1-N (DF3) (Ren et al., 2004). Immune complexes were prepared as described with antibodies specific for MUC1-C and MUC1-N (Li et al., 1998). For GST “pull-down” assays, GST or GST-galectin-3 was incubated with cell lysates for 2 hours at 4° C. and precipitated with glutathione-Sepharose™ 4B. Precipitates were subjected to immunoblotting with anti-MUC1-C, anti-galectin-3 (Santa Cruz Biotechnology, Santa Cruz, Calif.), anti-MUC1-N (DF3) (Ren et al., 2004), anti-EGFR (Santa Cruz Biotechnology), or anti-β-actin.
Quantitative real-time PCR. […] Quantification of galectin-3 transcripts was performed with primer pairs […] […] Relative gene expression was determined using the comparative ddCT (threshold) method with GAPDH as the internal control.
Antisense inhibition of miR-322. […] At 72 hours after transfection, the cells were analyzed for galectin-3 expression.

galectin-3 = molecular target: T2, galectin-3 (Homo sapiens, UniProt P17931); assay: Surface plasmon resonance (BIAcore): binding of MUC1-C/ED to immobilized galectin-3; details: galectin-3 immobilized on sensor chip, 25° C., 1:1 binding with a drifting base model, read-out: dissociation constant (KD) for binding to galectin-3
T2 construct: GST fusion proteins with full-length galectin-3 or certain deletion mutants were prepared; made in house; host or cells: E. coli
T2 sequence (P17931 whole entry P64H/T98P, the tested form may be a part): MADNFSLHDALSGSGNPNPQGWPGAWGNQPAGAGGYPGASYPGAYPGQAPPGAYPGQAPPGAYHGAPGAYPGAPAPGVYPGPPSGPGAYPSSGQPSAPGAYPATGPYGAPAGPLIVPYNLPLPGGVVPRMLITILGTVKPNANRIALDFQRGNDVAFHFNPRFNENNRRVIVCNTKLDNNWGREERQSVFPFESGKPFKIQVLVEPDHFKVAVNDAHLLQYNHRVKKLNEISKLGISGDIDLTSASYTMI
Experimental: (§3) Surface plasmon resonance analysis. Surface plasmon resonance measurements were determined using a BIACORE™ 3000 instrument at 25° C. Galectin-3 and galectin-3(63-250) were covalently coupled to CM5 Biacore™ sensor chips (500-1000 RU) at 30 μg/ml using the Biacore™ Amine Coupling kit. hFc-MUC1-C/ED and hFc diluted in running buffer (50 mM Tris-HCl, pH 7.4, 150 mM NaCl, 0.005% NP-40) were injected across galectin-3, galectin-3(63-250) or control flow cells at a rate of 30 μl/min. Regeneration of the sensor surface was performed with a 30-second pulse of 100 mM lactose. Association and dissociation kinetic constants were calculated by BIAevaluation™ software using 1:1 binding with a drifting base model.

[4] = molecular target: T3, purified recombinant galectin-3 (Homo sapiens, UniProt P17931, P64H/T98P); assay: In vitro binding assay: hFc proteins incubated with purified galectin-3, protein G precipitation, anti-galectin-3 immunoblot; details: 1 hour at 4° C.; protein G-Sepharose precipitation
T3 construct: GST fusion proteins with full-length galectin-3 or certain deletion mutants were prepared; made in house; host or cells: E. coli
T3 sequence (P17931 whole entry P64H/T98P, the tested form may be a part): as above
Experimental: as §2

galectin-3(63-250) = molecular target: T4, galectin-3(63-250) (Homo sapiens, UniProt P17931, T98P); assay: Surface plasmon resonance (BIAcore): binding of MUC1-C/ED to immobilized galectin-3(63-250); details: galectin-3(63-250) immobilized on sensor chip, 25° C., 1:1 binding with a drifting base model, read-out: dissociation constant (KD) for binding to galectin-3(63-250)
T4 construct: made in house; host or cells: E. coli
T4 sequence (P17931 with tags, fused parts or gaps T98P): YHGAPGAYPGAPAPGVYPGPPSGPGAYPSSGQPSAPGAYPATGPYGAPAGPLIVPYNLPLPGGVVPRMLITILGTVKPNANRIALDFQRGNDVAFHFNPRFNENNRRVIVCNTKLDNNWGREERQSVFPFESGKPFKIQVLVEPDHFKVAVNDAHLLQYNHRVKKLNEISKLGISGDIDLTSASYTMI
Experimental: as §3

For `OC[C@H]1O[C@@H](O[C@H]2[C@H](O)[C@@H](O)C(O)O[C@@H]2CO)[C@H](O)[C@@H](O)[C@H]1O` (stereo partly drawn) [lactose], the “EGF-stimulated binding of MUC1 and EGFR” value [1] was “attenuated” and the “EGF-induced colocalization of EGFR and MUC1 in clusters” value (EGFR and MUC1 clustering) was “blocked”.
With `OC[C@H]1O[C@@](CO)(O[C@H]2O[C@H](CO)[C@@H](O)[C@H](O)[C@H]2O)[C@@H](O)[C@@H]1O` [sucrose] the “EGF-stimulated binding of MUC1 and EGFR” value [1] was “not sucrose” and the “EGF-induced colocalization of EGFR and MUC1 in clusters” value (EGFR and MUC1 clustering) was “not sucrose”.
In the case of “GST-galectin-3(1-62): GST fusion of galectin-3 deletion mutant 1-62 that includes the ND”, the “binding of MUC1-C/ED to GST-galectin-3 fusion proteins (pull-down)” value (shortened to “binding of MUC1-C/ED”) (MUC1-C/ED) is reported as “no detectable binding”.
“GST-galectin-3(1-138): GST fusion of galectin-3 deletion mutant 1-138 that includes the ND” was tested, and the “binding of MUC1-C/ED” value (MUC1-C/ED) was “no detectable binding”.
In the case of “GST-galectin-3(63-250): GST fusion of galectin-3 amino acids 63-250 that contains the CRD”, the “binding of MUC1-C/ED” value (MUC1-C/ED) is reported as “pulled-down”.
“GST-galectin-3: GST fusion protein with full-length galectin-3” was tested, and the “binding of MUC1-C/ED” value (MUC1-C/ED) was “pulled-down”.
“anti-miR-322: antisense 2′-O-methyl oligoribonucleotide (GGUAUAGCAGCGCCUCACGUUUUG) (SEQ ID NO:20) against miR-322 (all 2'-O-methyl, backbone not given here)” was tested, and the “half-life of galectin-3 transcripts” value (miR-322 [2]) was 19.5 h, the “galectin-3 expression at the protein level” value (miR-322 [3]; immunoblotting) was “upregulates” and the “galectin-3 expression at the mRNA level” value (miR-322 [3]; quantitative RT-PCR) was “upregulates”.
With “hFc-MUC1-C/ED: MUC1-C extracellular domain (58 amino acids) fused to human Fc, secreted from CHO-K1 cells (SVVVQLTLAFREGTINVHDVETQFNQYKTEAASRYNLTISDVSVSDVPFPFSAQSGAG; not fully specified (N-terminus); also: fused to dimerising human Fc)” the Kd (galectin-3) was 11.1 nM, the “binding of purified recombinant galectin-3 (immunoblot of adsorbates)” value [4] was “binding of galectin-3 to hFc-MUC1-C/ED” and the Kd (galectin-3(63-250)) was 9.8 nM.
With “scrambled oligo: scrambled 2′-O-methyl oligoribonucleotide (CACGGAUCUAGGUCGUAACGUAGG) (SEQ ID NO:21), control (all 2'-O-methyl, backbone not given here) [reference compound]” the “half-life of galectin-3 transcripts” value (miR-322 [2]) was 13.0 h.
